Reference: patent US10787443B2, “RAF-degrading conjugate compounds” (ZAMBONI CHEM SOLUTIONS INC., priority 2017, dated 2020)
“Also recorded” adds a separate entry of the source.

What was measured:
[1] = test system: GST-Braf kinase domain and biotinylated E3 substrate adapter (VHL/EloB/EloC complex or CRBN318-425); assay: Dimerization assay (AlphaScreen/AlphaLisa), RAF/E3 dimerization; assay type: binding; settings: relative value, compounds 4 fold serial dilutions from 20 μM
[2] = biological target: T1, CRAF (CRAF fusion protein with a fluorescent protein) in Calu-6 cells (Homo sapiens, UniProt P04049); assay: Degradation assay, fluorescent CRAF fusion protein levels in Calu-6 cells (IncuCyte S3); assay type: cell-based; settings: fluorescence/confluence
T1 construct: fluorescent protein (green); expressed in transfected cells; host or cells: Calu-6
Protocol: Calu-6 cells were stably transfected with a CRAF fusion protein with a fluorescent protein attached to the C-terminus of CRAF in order to monitor protein levels via fluorescence. Cells were seeded into a 96-well plate and allowed to adhere overnight. The next day cells are treated with compounds at the doses indicated in the table below and analyzed over time. Data was collected by monitoring Fluorescent CRAF protein levels an IncuCyte S3 Live Cell Analysis System (Essen BioScience). […] Calu6_CRAF fusion protein cells are imaged and analyzed using an Incucyte S3 live-cell analysis system (Essen Biosciences). Fluorescence signal is due to expression of the fluorescent protein covalently fused to the C-terminus of CRAF and degradation is assessed by measuring fluorescence/confluence (˜cell number) after treatment with compounds of the present disclosure. Phase contrast images are analyzed using Incucyte S3 software. Percent confluence is calculated using a phase contrast mask to quantify the area of the image occupied by the Calu6_CRAF fusion protein cells. Fluorescent images are analyzed using Incucyte S3 software. Green Corrected Units (GCU) is calculated using a fluorescence mask to quantify the area of the image occupied by green fluorescent signal and the intensity of the signal. […] As discussed above, degradation is measured as a function of fluorescence/confluence.

T1 sequence (P04049 whole entry, the tested form may be a part): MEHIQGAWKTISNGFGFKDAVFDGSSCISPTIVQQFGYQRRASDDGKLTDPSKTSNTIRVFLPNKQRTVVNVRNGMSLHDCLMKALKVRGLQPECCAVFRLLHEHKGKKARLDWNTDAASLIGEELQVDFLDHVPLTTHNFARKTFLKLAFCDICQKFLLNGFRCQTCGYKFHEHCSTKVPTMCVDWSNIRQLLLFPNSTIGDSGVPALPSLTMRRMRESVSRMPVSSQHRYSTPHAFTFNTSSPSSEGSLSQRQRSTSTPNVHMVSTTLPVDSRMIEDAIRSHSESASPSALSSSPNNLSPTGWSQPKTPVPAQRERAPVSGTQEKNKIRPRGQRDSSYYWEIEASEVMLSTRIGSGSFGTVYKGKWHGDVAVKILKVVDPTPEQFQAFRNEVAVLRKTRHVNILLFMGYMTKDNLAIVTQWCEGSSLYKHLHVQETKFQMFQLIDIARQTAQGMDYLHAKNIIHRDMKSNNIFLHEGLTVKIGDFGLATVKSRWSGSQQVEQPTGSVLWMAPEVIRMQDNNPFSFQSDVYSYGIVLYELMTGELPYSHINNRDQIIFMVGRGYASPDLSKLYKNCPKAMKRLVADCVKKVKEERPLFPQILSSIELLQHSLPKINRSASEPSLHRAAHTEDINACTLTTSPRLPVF

Row | SMILES | RAF/E3 Dimerization ([1]; Table 17) | further results
1 | Cc1ncc(NC(=O)c2cccc(C(F)(F)F)c2)cc1-c1cnc(O[C@H]2CCO[C@@H](COCc3cn(CCCCCC(=O)N[C@@H](C(=O)N4C[C@H](O)C[C@H]4C(=O)N[C@@H](C)c4ccc(-c5scnc5C)cc4)C(C)(C)C)nn3)C2)c(N2CCOCC2)c1 (relative stereo) [Compound 2.004, (2S,4R)-1-((R)-3,3-dimethyl-2-(6-(4-((((2R*,4S*)-4-((2′-methyl-5-morpholino-5′-(3-(trifluoromethyl)benzamido)-[3,3′-bipyridin]-6-yl)oxy)tetrahydro-2H-pyran-2-yl)methoxy)methyl)-1H-1,2,3-triazol-1-yl)hexanamido)butanoyl)-4-hydroxy-N—((S)-1-(4-(4-methylthiazol-5-yl)phenyl)ethyl)pyrrolidine-2-carboxamide] | +++ (50% > RAF/E3 Dimerization ≥ 25) | CRAF degradation in Calu6 cells over time ([2]; 1.5 μM, FIG. 3): CRAF degradation
2 | Cc1ncc(NC(=O)c2cccc(C(F)(F)F)c2)cc1-c1cnc(OCCOCCOCCOCCOCCOCC(=O)N[C@@H](C(=O)N2C[C@H](O)C[C@H]2C(=O)N[C@@H](C)c2ccc(-c3scnc3C)cc2)C(C)(C)C)c(N2CCOCC2)c1 [Compound 2.001, (2S,4R)-1-((R)-2-(tert-butyl)-20-((2′-methyl-5-morpholino-5′-(3-(trifluoromethyl)-benzamido)-[3,3′-bipyridin]-6-yl)oxy)-4-oxo-6,9,12,15,18-pentaoxa-3-azaicosan-1-oyl)-4-hydroxy-N—((S)-1-(4-(4-methylthiazol-5-yl)phenyl)ethyl)pyrrolidine-2-carboxamide] | +++++ (RAF/E3 Dimerization ≥75%) | CRAF degradation in Calu6 cells over time ([2]; 3 μM, FIG. 4, 8, 9): CRAF degradation
3 | Cc1ncc(NC(=O)c2cccc(C(F)(F)F)c2)cc1-c1cnc(OCCOCCOCCOCCOCC(=O)NCCOCCCc2cccc3c2CN(C2CCC(=O)NC2=O)C3=O)c(N2CCOCC2)c1 (centres unmarked) [Compound 2.016, N-(2-(3-(2-(2,6-dioxopiperidin-3-yl)-1-oxoisoindolin-4-yl)propoxy)ethyl)-14-((2′-methyl-5-morpholino-5′-(3-(trifluoromethyl)benzamido)-[3,3′-bipyridin]-6-yl)oxy)-3,6,9,12-tetraoxatetradecan-1-amide] | +++++ (RAF/E3 Dimerization ≥75%) | CRAF degradation in Calu6 cells over time ([2]; 5 μM, FIG. 11): CRAF degradation
4 | Cc1ccc(NC(=O)c2cccc(C(F)(F)F)c2)cc1-c1cnc(OCCc2cn(CCCCCC(=O)Nc3cccc4c3C(=O)N(C3CCC(=O)NC3=O)C4=O)nn2)c(N2CCOCC2)c1 (centres unmarked) [Compound 1.009, N-(3-(6-(2-(1-(6-((2-(2,6-dioxopiperidin-3-yl)-1,3-dioxoisoindolin-4-yl)amino)-6-oxohexyl)-1H-1,2,3-triazol-4-yl)ethoxy)-5-morpholinopyridin-3-yl)-4-methylphenyl)-3-(trifluoromethyl)benzamide] | + (5% > RAF/E3 Dimerization) | CRAF degradation in Calu6 cells over time ([2]; 3 μM, FIG. 4, 8, 9): CRAF degradation
5 | Cc1ncc(NC(=O)c2cccc(C(F)(F)F)c2)cc1-c1cnc(OCCOCCOCCOCc2cn(CCCCCC(=O)N[C@@H](C(=O)N3C[C@@H](O)C[C@@H]3C(=O)N[C@@H](C)c3ccc(-c4scnc4C)cc3)C(C)(C)C)nn2)c(N2CCOCC2)c1 [Compound 2.010, (2R,4S)-1-((R)-3,3-dimethyl-2-(6-(4-((2-(2-(2-((2′-methyl-5-morpholino-5′-(3-(trifluoromethyl)benzamido)-[3,3′-bipyridin]-6-yl)oxy)ethoxy)ethoxy)ethoxy)methyl)-1H-1,2,3-triazol-1-yl)hexanamido)butanoyl)-4-hydroxy-N—((S)-1-(4-(4-methylthiazol-5-yl)phenyl)ethyl)pyrrolidine-2-carboxamide] |  | CRAF degradation in Calu6 cells over time ([2]; 1.67 μM, FIG. 13, FIG. 14): no CRAF degradation; also recorded: does not significantly reduce the relative amount of CRAF
6 | Cc1ncc(NC(=O)c2cccc(C(F)(F)F)c2)cc1-c1cnc(OCCOCCOCCOCC(=O)NCCOCCCc2cccc3c2C(=O)N(C2CCC(=O)NC2=O)C3=O)c(N2CCOCC2)c1 (centres unmarked) [Compound 2.021, N-(6′-((18-(2-(2,6-dioxopiperidin-3-yl)-1,3-dioxoisoindolin-4-yl)-11-oxo-3,6,9,15-tetraoxa-12-azaoctadecyl)oxy)-2-methyl-5′-morpholino-[3,3′-bipyridin]-5-yl)-3-(trifluoromethyl)-benzamide] | ++ (25% > RAF/E3 Dimerization ≥ 5%) | CRAF degradation in Calu6 cells over time ([2]; 15 μM, FIG. 6): CRAF degradation
7 | Cc1ccc(NC(=O)c2cccc(C(F)(F)F)c2)cc1-c1cnc(OCCOCc2cn(CCCCCC(=O)Nc3cccc4c3C(=O)N(C3CCC(=O)NC3=O)C4=O)nn2)c(N2CCOCC2)c1 (centres unmarked) [Compound 2.012, N-(3-(6-(2-((1-(6-((2-(2,6-dioxopiperidin-3-yl)-1,3-dioxoisoindolin-4-yl)amino)-6-oxohexyl)-1H-1,2,3-triazol-4-yl)methoxy)ethoxy)-5-morpholinopyridin-3-yl)-4-methylphenyl)-3-(trifluoromethyl)benzamide] | +++ (50% > RAF/E3 Dimerization ≥ 25) | CRAF degradation in Calu6 cells over time ([2]; 3 μM, FIG. 4, 8, 9): CRAF degradation
8 | CNc1ncc2cc(-c3cc(NC(=O)NCCOCCOCCOCCOCCOCC(=O)N[C@@H](C(=O)N4C[C@H](O)C[C@H]4C(=O)N[C@@H](C)c4ccc(-c5scnc5C)cc4)C(C)(C)C)c(F)cc3C)c(C)nc2n1 [Compound 2.040, (2S,4R)-1-((R)-21-(tert-butyl)-1-((2-fluoro-4-methyl-5-(7-methyl-2-(methylamino)pyrido[2,3-d]pyrimidin-6-yl)phenyl)amino)-1,19-dioxo-5,8,11,14,17-pentaoxa-2,20-diazadocosan-22-oyl)-4-hydroxy-N—((S)-1-(4-(4-methylthiazol-5-yl)phenyl)ethyl)pyrrolidine-2-carboxamide] | + (5% > RAF/E3 Dimerization) | 
9 | CCC(Cc1cnnn1CCCCCC(=O)Nc1cccc2c1C(=O)N(C1CCC(=O)NC1=O)C2=O)Oc1ncc(-c2cc(NC(=O)c3cccc(C(F)(F)F)c3)cnc2C)cc1N1CCOCC1 (racemic) [Compound 1.012, (±)-N-(6′-((1-(1-(6-((2-(2,6-dioxopiperidin-3-yl)-1,3-dioxoisoindolin-4-yl)amino)-6-oxohexyl)-1H-1,2,3-triazol-5-yl)butan-2-yl)oxy)-2-methyl-5′-morpholino-[3,3′-bipyridin]-5-yl)-3-(trifluoromethyl)benzamide] | + (5% > RAF/E3 Dimerization) | 
10 | Cc1ncc(NC(=O)c2cccc(C(F)(F)F)c2)cc1-c1cnc(OCCCc2cn(CCCCCC(=O)Nc3cccc4c3C(=O)N(C3CCC(=O)NC3=O)C4=O)nn2)c(N2CCOCC2)c1 (centres unmarked) [Compound 1.003, N-(6′-(3-(1-(6-((2-(2,6-dioxopiperidin-3-yl)-1,3-dioxoisoindolin-4-yl)amino)-6-oxohexyl)-1H-1,2,3-triazol-4-yl)propoxy)-2-methyl-5′-morpholino-[3,3′-bipyridin]-5-yl)-3-(trifluoromethyl)benzamide] |  | RAF/E3 Dimerization ([1]; Table 15): + +
11 | O=C1CCC(N2C(=O)c3cccc(NC(=O)CCCCCn4cc(CCCCNC(=O)c5cc(Oc6ccc(NC(=O)Nc7ccc(Cl)c(C(F)(F)F)c7)cc6)ccn5)nn4)c3C2=O)C(=O)N1 (centres unmarked) [Compound 2.026, 4-(4-(3-(4-chloro-3-(trifluoromethyl)phenyl)ureido)phenoxy)-N-(4-(1-(6-((2-(2,6-dioxopiperidin-3-yl)-1,3-dioxoisoindolin-4-yl)amino)-6-oxohexyl)-1H-1,2,3-triazol-4-yl)butyl)picolinamide] | + (5% > RAF/E3 Dimerization) | 
